Entries after “also recorded” stand apart in the source; their conditions may differ.
Columns and labels:
[1] = test system: B. subtilis biofilms; assay: B. subtilis biofilm stability / maintenance in vitro; type: cell-based; settings: for effect on beneficial biofilms (stability / maintenance), single agent: in vitro, biofilms at day 1 and day 5
Description: Shown are biofilms of treated and untreated B. subtilis biofilms.
Strains and Media All experiments were performed with B. subtilis NCBI3610 and its derivatives. Assays were carried out with the biofilm-inducing medium, MSgg: 5 mM potassium phosphate, 100 mM MOPS (pH 7), 2 mM MgCl2, 50 μM MnCl2, 1 μM ZnCl2, 2 μM thiamine, 0.5% glycerol, 0.5% glutamate, 50 μg/ml tryptophan, 50 μg/mlphenylalanine 50 μg/ml threonine, 700 μM CaCl2, and 50 μM (for growth assays) or 125 μM (for biofilm assays) FeCl3^1. A solid MSgg medium was obtained by adding Bacto agar (Difco) to a final concentration of 1.5%. When necessary, selective medium was prepared with LB-agar or LB broth, supplemented with: 100 μg/ml ampicillin (amp) (AG Scientific), or 10 μg/ml kanamycin (kan) (AG Scientific), or 10 μg/ml chloramphenicol (cam) (Amresco), or 10 μg/ml tetracycline (tet) (Amresco), or 100 μg/ml spectinomycin (spec) (Tivan Biotech), or 1 μg/mlerythromycin (erm) (Amresco)+25 μg/ml lincomycin (linc) (Sigma Aldrich).

[2] = test system: pseudomonas syringae pv. Tomato; assay: Tomato plant survival after pseudomonas syringae pv. Tomato infection (Example 9); type: in vivo, tomato plants; settings: 5 μM caffeic acid or 5 μM putrescine or 2.5 μM each; putrescine read 28 days after infection
Description: Bacillus strain B. subtilis 3610 (B.S) are maintained on LB plates. 1000 cells of B.S. with or without the addition of 5 μM of caffeic acid or 5 μM of putrescine, or 2.5 μM each of caffeic acid and putrescine are added to tomato plants grown on agrophonic beads. Plants are incubated at 28±2° C. for 15 days.

[3] = test system: B. subtilis; assay: Planktonic growth (OD600) in liquid MSgg; type: cell-based; settings: caffeic acid at indicated concentrations, 30° C.
Description: Planktonic growth of wild type grown at 30° C. with shaking in liquid MSgg medium without (untreated) or caffeic acid at indicated concentrations was monitored by measuring OD600in a microplate reader. Results are averages of four wells within one experiment and their standard deviations. A representative of three independent experiments is shown.
(§1) pks expression analysis. pks expression in the presence of plant metabolites was analyzed as following: the luminescence intensity of cells harboring a PpksC-lux transcriptional promoter fusion was analyzed. Cells were grown to a mid-logarithmic phase, diluted 1:100 in 150 μl liquid MSgg medium, either with or without root exudate. Cells were grown in a 96-well microplate (Thermo Scientific, Roskilde, Denmark) with agitation at 30° C. for 16 h in a microplate reader (Synergy 2, BioTek, Winooski, Vt., USA) measuring luminescence intensity and the optical density at 600 nm (OD600) every 15 min.

[4] = test system: pks operon (PKS promoter); assay: pks expression, amyE::Ppks-gfp fluorescence reporter; type: cell-based, B. subtilis
Description: FIGS. 3A:-3H Specialized host-derived metabolites increase PKS activity while B. subtilis biofilms increase plant Induced Systemic Resistance (ISR). (FIG. 3A) Quantification of pks expression (amyE::Ppks-gfp) in B. subtilis over time in response to different hydrophobicity fractions of plant root exudate. Expression was measured using fluorescent intensity of GFP fused to the PKS promoter. Color-coded curves indicate ascending methanol concentrations used for consecutive washings of root exudate from Silica-based bonded phase with strong hydrophobicity; darker curve indicates the first flow-through of the loaded root exudate from the silica cartridge. Orange curve indicate the pks expression kinetics without treatment. (FIG. 3B) Quantification of pks expression (amyE::Ppks-gfp) in B. subtilis over time in response to plant root metabolites. Expression was measured by fluorescent intensity of GFP fused to the PKS promotor. Color-coded curves indicate 5, 50,100 and 150 μM of the four metabolites: Methyl β-D-Glucopyranosid (upper left), Chromone (upper right), Chlorogenic acid (lower left) and Caffeic acid (lower right). Orange curve indicate the pks expression kinetics without treatment. (FIG. 3C) Fluorescence imaging of pks expression (amyE::Ppks-gfp) in a single cell resolution 5 h after B. subtilis was grown in MSgg (control) liquid culture supplemented with 150 μM of Chlorogenic acid and Caffeic acid. Images presented as over-layered channels of TL-phase and EGFP. Scale bar—[…]. […] Pathogenicity was measured in E. sativa seedlings whose roots were inoculated with B. subtilis, S. plymuthica and their combination in ratios of 1:1, 100:1 and 1:100. […]
Fluorescence microscopy. […] Cells were s visualized by fluorescence microscopy; Phase contrast and signal from Ppks-gfp (green) are shown. Fluorescent cell count and intensity levels were recorded for 10 fields in each treatment, at least 1000 cells were quantified for each treatment.

[5] = test system: B. subtilis 3610 biofilms; assay: Biofilm maintenance (% coverage) on tomato roots in planta; type: in vivo; settings: 1000 B. subtilis cells with or without materials, tomato plants on agrophonic beads
Description: (FIGS. 17A-17C) B. subtilis 3610 constantly expressing the fluorescent protein mKate2 was maintained on LB plates. 1000 cells either applied or non-applied with the materials indicated were added to tomato plants grown on agrophonic beads. % coverage was calculated based on quantifying 20 fields from the fluorescent microscope using Image J. Three replications were maintained for each assay. SD represents the average of three independent experiments.

[6] = test system: pks operon (PpksC promoter); assay: pks expression, PpksC-lux luminescence reporter; type: cell-based, B. subtilis; settings: library of 400 plant metabolites, growth-normalized RLU
Description: FIGS. 23A-23B: An ester of caffeic acid induces antibiotic production. (FIG. 23A) Scheme of a screen of plant metabolites for pks induction. (FIG. 23B) Growth-normalized RLU of PpksC-lux strain treated with a small molecule library representative as in A, compared with the treatment in root exudate.
as §1
A library of 400 plant metabolites was screened for pks induction using B. subtilis cells carrying the PpksC-lux construct (FIG. 23A).

In the case of `NCCCCN` [putrescine], the “effect on beneficial biofilms (stability / maintenance), single agent” value [1] is reported as “little or no biological effect” and the “tomato plant survival after pseudomonas syringae pv. Tomato infection” value [2] is reported as “little or no biological effect on tomato plant survival”.

In the case of `O=C(O)/C=C/c1ccc(O)c(O)c1` [caffeic acid], the “duration of increased stability of bacterial beneficial biofilms” value ([1]; caffeic acid alone, 100 μM, laboratory conditions) is reported as “up to 4 days”, the “effect on beneficial biofilms (stability / maintenance), single agent” value [1] is reported as “can promote biofilm maintenance” and the “planktonic growth of B. subtilis” value [3] is reported as “no impact on planktonic growth; also recorded: little or no effect on the growth of B. subtilis”. For the same molecule, the “number of cells expressing the pks operon” value ([4]; 150 μM, 5 h, single cell fluorescence) was “induced the number of cells expressing the pks operon”, the “average pks expression level” value ([4]; 150 μM, single cell fluorescence, versus control) was “comparable to the control” and the “pks (PKS) expression” value ([4]; B. subtilis amyE::Ppks-gfp, liquid MSgg, 5, 50, 100 and 150 μM) was “activatespks operon; also recorded: significantly enhanced PKS expression”. The “tomato plant survival after pseudomonas syringae pv. Tomato infection” value [2] was “increased tomato plant survival”, the “protective biofilms in planta on tomato roots (% coverage)” value [5] was “sustained protective biofilms in planta on tomato roots” and the “protective biofilms in planta on tomato roots (% coverage)” value ([5]; listed as Caffeic acid) was “can promote biofilm maintenance”.

For `O=C(/C=C/c1ccc(O)c(O)c1)O[C@@H]1C[C@](O)(C(=O)O)C[C@@H](O)[C@H]1O` [chlorogenic acid], the “pks activation in screen of plant metabolites” value [6] was “activatespks operon; also recorded: induced pks activation”.

With `O=c1ccc2cc(O)c(O)cc2o1` [aesculetin] the “pks activation in screen of plant metabolites” value [6] was “activatespks operon; also recorded: induced pks activation”.

— patent US20210144999A1, “COMPOSITIONS COMPRISING HYDROXYCINNAMIC ACID AND RELATED CONJUGATES, ANALOGUES AND DERIVATIVES, AND METHODS OF USE THEREOF” (YEDA RESEARCH AND DEVELOPMENT CO. LTD., priority 2017, published 2021)
